From patent publication US10889553B2, “Asymmetric triazole benzamide derivatives and the compositions and methods of treatment regarding the same” (NysnoBio Ireland DAC, priority 2017, dated 2021)
Read-outs that look alike come from different tables or passages of the source.

Assays:
[1] = tested on: TOV-21G (ovarian); experiment: Cancer cell proliferation assay (acid phosphatase); type: cell-based; conditions: Homo sapiens, TOV21G
Summary of the method: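 Seed 4×10^4 cells/ml, overnight 37° C./5% CO2; add compound (varying conc., triplicate); incubate 72 hrs; wash PBS; acid phosphatase substrate pH 5.5, 2 h; stop NaOH; read 405/620 nm; % inhibition vs DMSO.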

[2] = Microsomal stability assay, rat liver microsomes; type: in vitro ADME; conditions: pH 7.4; rat liver microsomes 1.0 mg/mL, 1 μM compound, NADPH; read-out: RLM t1/2
Method: Compounds were also tested for metabolic stability in both rat liver microsomes (RLM) and the compounds are tested for human liver microsomes (HLM) and their half-life is calculated (See Tables 5A and 5B). The assay was performed as follows. The total volume for each incubation was 250 μL. A 100 μM DMSO solution of compound (diluted from 10 mM stock solution) was spiked into 50 mM KH2PO4 (pH 7.4) buffer containing liver microsome at a concentration of 1.0 mg/mL. The reaction was initiated by the addition of 50 μL of 1 mM NADPH. The final concentration of each compound was 1 μM (1% DMSO). The positive controls, phenacetin for CYP1A2, diclofenac for CYP2C9, omeprazole for CYP2C19, dextromethorphan for CYP2D6 and midazolam for CYP3A4 were added to a separate tube with the final substrate concentrations of 1 μM (1% DMSO) for evaluating the enzyme activities in the liver microsomes. At 0, 15, 30 and 60 min, an aliquot of 15 μL reaction mixtures were removed and 200 μL of methanol (with internal standard of 25 ng/mL propranolol) was added to quench the reaction. The resulting mixture was centrifuged and supernatant was used for LC-MS/MS analysis.
The signals for each compound, or the metabolites for the probe substrates and the internal standard were integrated and the peak area ratios to internal standard were generated. Percent parent remaining at a specified timepoint was calculated based on the peak area ratios at time 0 (as 100%) for in vitro metabolic stability studies in liver microsome and hepatocyte. The observed rate constant (kobs) for the metabolism of substrates was calculated by plotting the natural log of percentage substrate remaining versus time of incubation with the slope being kobs. The half-life (T1/2) was calculated according to the following equation: T1/2=[…]

[3] = 72 h, Table 6A, 72 hrs, read-out: TOV-21G IC50

Row | Structure (SMILES) | IC50 [1, 3] [µM] | half-life at 1 μM [2] [h] | IC50 ([1]; Table 6A, 72 hrs, read-out: TOV-21G IC50) [µM] | IC50 ([1]; Table 6C, data of FIG. 2, read-out: IC50 (μM) TOV-21G (ovarian)) [µM] | EC50 ([1]; Table 6D, another set of cell proliferation assay) [nM] | IC50 ([1]; Table 6E, read-out: Proliferation IC50 (nM) Ovarian TOV21G) [µM]
1 | C#Cc1ccc(C(=O)Nc2nc(NC(=O)c3cccc(N=[N+]=[N-])c3)n(-c3ccccc3)n2)cc1 [Compound 2] | 2.2 | 0.683 |  |  |  | 
2 | Cc1ccccc1C(=O)Nc1nc(NC(=O)c2cccnc2)nn1-c1ccccc1 [Compound 6] | 1.2 | 0.0833 |  |  |  | 
3 | Cc1ccccc1C(=O)Nc1nc(NC(=O)c2ccno2)n(-c2ccccc2)n1 [Compound 7] | > 1 | 3.98 |  |  |  | 
4 | Cc1ccccc1C(=O)Nc1nc(NC(=O)c2ccccn2)nn1-c1ccccc1 [Compound 16] | 2.3 | 2.35 |  |  |  | 
5 | Cc1ccccc1C(=O)Nc1nc(NC(=O)c2cnccn2)n(-c2ccccc2)n1 [Compound 17] | > 1 | 0.433 |  |  |  | 
6 | Cc1ccccc1C(=O)Nc1nc(NC(=O)C2CCCN2)nn1-c1ccccc1 (stereo not drawn) [Compound 20] | > 1 | 2.45 |  |  |  | 
7 | Cc1ccc(C(=O)Nc2nc(NC(=O)c3ccc(C)cc3)n(-c3ccccc3)n2)cc1 [Compound 21] | 2.5 | 0.1 |  |  |  | 
8 | COc1ccccc1C(=O)Nc1nc(NC(=O)c2ccccc2OC)n(-c2ccccc2)n1 [Compound 23] | 2.4 | 0.35 |  |  |  | 
9 | Cc1ccccc1C(=O)Nc1nc(NC(=O)c2ccccc2C)n(-c2ccc(F)c(F)c2)n1 [Compound 24] | 0.97 | 2.18 |  |  |  | 
10 | Cc1ccccc1C(=O)Nc1nc(NC(=O)c2ccccc2C)n(-c2ccc(C(F)(F)F)cc2)n1 [Compound 25] | < 0.1 | 6.8 |  |  |  | 
11 | Cc1ccccc1C(=O)Nc1nc(NC(=O)c2ccccc2C)n(-c2ccccc2Cl)n1 [Compound 26] | 2.1 | 0.967 |  |  |  | 
12 | Cc1ccc(-n2nc(NC(=O)c3ccccc3C)nc2NC(=O)c2ccccc2C)cc1 [Compound 31] | 2.3 | 0.233 |  |  |  | 
13 | Cc1ccccc1C(=O)Nc1nc(NC(=O)c2ccccc2C)n(-c2ccccc2F)n1 [Compound 32] | > 2.5 | 3.4 |  |  |  | 
14 | O=C(Nc1nc(NC(=O)c2ccncc2)n(-c2ccccc2)n1)c1ccncc1 [Compound 33] | > 2.5 | 3.3 |  |  |  | 
15 | Cc1ccccc1C(=O)Nc1nc(NC(=O)c2ccncc2)nn1-c1ccccc1 [Compound 34] | 1.5 | 5.5 |  |  |  | 
16 | Cc1ccccc1C(=O)Nc1nc(NC(=O)c2ccccc2C)n(-c2ccc(C#N)cc2)n1 [Compound 35] | 1.4 | 3.3 |  |  |  | 
17 | Cc1ccccc1C(=O)Nc1nc(NC(=O)c2ccccc2C)n(-c2cccc(Cl)c2)n1 [Compound 36] | 0.3 | 1.05 |  |  |  | 
18 | COc1ccc(C(=O)Nc2nc(NC(=O)c3ccc(OC)cc3)n(-c3ccccc3)n2)cc1 [Compound 37] | 1.9 | 0.35 |  |  |  | 
19 | Cc1cccc(-n2nc(NC(=O)c3ccccc3C)nc2NC(=O)c2ccccc2C)c1 [Compound 38] | 1.7 | 0.433 |  |  |  | 
20 | Cc1ccccc1C(=O)Nc1nc(NC(=O)c2ccccc2C)n(-c2cccc(F)c2)n1 [Compound 39] | 1.5 | 2.22 |  |  |  | 
21 | O=C(Nc1nc(NC(=O)c2cccnc2)n(-c2ccccc2)n1)c1cccnc1 [Compound 40] | > 2.5 | > 8.33 |  |  |  | 
22 | O=C(Nc1nc(NC(=O)c2ccccn2)n(-c2ccccc2)n1)c1ccccn1 [Compound 41] | > 2.5 | 0.283 |  |  |  | 
23 | Cc1ccccc1C(=O)Nc1nc(NC(=O)c2ccccc2C)n(-c2ccc(OC(F)(F)F)cc2)n1 [Compound 42, N,N′-(1-(4-(trifluoromethoxy)phenyl)-1H-1,2,4-triazole-3,5-diyl)bis(2-methylbenzamide)] |  | 3.85 | 0.25 | 0.15 | 74 | 0.109
24 | Cc1ccccc1C(=O)Nc1nc(NC(=O)c2ccccc2C)n(-c2ccc(N3CCCCC3)cc2)n1 [Compound 44] | 1.9 | 0.1 |  |  |  | 
25 | Cc1ccccc1C(=O)Nc1nc(NC(=O)c2ccccc2C)n(-c2ccc(F)cc2F)n1 [Compound 46] | 2.4 | 1.62 |  |  |  | 
26 | Cc1ccccc1C(=O)Nc1nc(NCc2ccccc2)nn1-c1ccc(C(F)(F)F)cc1 [Compound 102] | > 2.5 | 0.167 |  |  |  | 
27 | Cc1ccnc(-c2nc(NC(=O)c3ccccc3C)n(-c3ccccc3)n2)c1 [Compound 124] | 0.59 | 0.717 |  |  |  | 
